Measured values published in patent US20050074463A1, “Therapeutic vaccination method, mutated peptides of hiv reverse transciptase and their use for vaccination and diagnostic purposes” (Universite Pierre et Marie Curie-paris VI, priority 2001, published 2005).

How the values were obtained:
[1] = tested on: gamma-IFN-producing CD8 cells in PBMCs from patient 201#5; experiment: ELISpot-γIFN assay, ex vivo recognition of epitope peptides by PBMCs; conditions: PBMCs from patient 201#5 treated with NRTIs and carrying RT mutation 41 (M>L), no prior stimulation
[2] = target: Wild-type peptide 33-41 of HIV-1 reverse transcriptase (HIV-1)
[3] = target: Mutated peptide 33-41 of HIV-1 reverse transcriptase (mutation 41 M>L) (HIV-1)

Substance	frequency of recognition (cells secreting γIFN), SFC/10^6 PBMCs [1]	SFC/10^6 PBMCs (ELISpot gamma-IFN) (SFC/10^6 PBMCs) [2]	SFC/10^6 PBMCs (ELISpot gamma-IFN) (SFC/10^6 PBMCs) [3]
ALVEICTEM [wild-type peptide 33-41]	3 SFC/10^6 PBMCs	–	–
ALVEICTEL [mutated peptide 33-41]	95 SFC/10^6 PBMCs	–	–
PBMCs from patient 201#5 (cells without a defined receptor)	–	3	95
